# Where two headings read alike, the source gives them in different places.
# Tests used:
# [1] = tested on: retinal pigment epithelium (RPE); assay: Exploratory toxicology, ocular toxicity by retinal histology in rats; type: in vivo; details: rat, 7 days
# Method: (§1) Wistar Han rats (obtained from Charles River, 125–300 g, 6–9 weeks old at study start, see Supplementary Table 7 for number of males and females) received daily oral dosing of test compounds or vehicle at the indicated concentrations for 7–29 days as indicated. The doses were prepared in a solution of 0.5% methylcellulose and 0.2% polysorbate 80, or 0.5% methylcellulose and hydroxypropyl methylcellulose acetate succinate (high fine grade) and delivered in a volume of 10 ml kg^−1 per day. Blood samples for bioanalytical analysis were collected in K2EDTA tubes via jugular vessel. Plasma was isolated after centrifugation and stored at −20 °C prior to analysis. Animals were given an additional dose the day after the end of the study (days 8, 15 or 30 for 7, 14 and 29 day studies, respectively) then killed by gas anaesthesia (isoflurane) followed by exsanguination ∼3 h after this final dose.
# [2] = molecular target: T1, ~30 kDa band (CatD heavy chain) in ARPE-19 cells (Homo sapiens, UniProt P07339); assay: Live cell PF-7802 labelling, in-gel fluorescence analysis; type: cell-based; details: pretreatment 2 µM inhibitor, PF-7802 100 nM
# T1 construct: host or cells: ARPE-19
# Method: Cells were lysed with sonication on ice in 70 μl DPBS and protein concentrations were determined using a BCA assay (Pierce). […] Gels were fixed in 50% MeOH/7% AcOH for 15 min, then rinsed with 40% MeOH for at least 20 min before in-gel fluorescence scanning (Typhoon Trio, excitation 532 nm, emission 580 nm).
# [3] = tested on: retinal pigment epithelium (RPE); parameters: method as in PMID 22090477, PMID 25361751; details: cited from earlier work
# BACE1 = BACE1 (Homo sapiens, UniProt P56817); assay: BACE1 biochemical cellular assay (sAPPβ ELISA in H4 cells overexpressing APP695); type: cell-based; parameters: endogenous in cells; host or cells: H4 human neuroglioma cells overexpressing human APP695; details: BACE1 enzyme IC50 versus BACE1 cellular IC50
# Method: Cellular inhibition of BACE1 was determined by measuring sAPPβ, the primary cleavage product of BACE-1, in H4 human neuroglioma cells overexpressing the wild-type human APP695. […] The colorimetric reaction was read by an EnVision plate reader (PerkinElmer).
# [4] = Plasma exposure (average unbound plasma concentration) in rats; type: in vivo, rat; details: Wistar Han, oral, rat, 7 days, average unbound plasma concentration, read-out: Avg Cp,u parent
# Method: as §1
# Plasma samples were analysed after protein precipitation by treating 20 μl of sample matrix with 200 μl of acetonitrile containing internal standard. All samples were centrifuged at 3,000 r.p.m. for 5 min. Then 100 μl of supernatant was transferred to a clean plate and evaporated to dryness under N2. Samples were reconstituted in 200 μl of 80:20 (v:v) acetonitrile:water. Samples were analysed on Waters Acquity UPLC connected to AB Sciex API5500 QTrap MS/MS.
# Plasma protein binding was determined in the Rapid Equilibrium Device (RED, Thermo Scientific). Frozen plasma was warmed to 37 °C and adjusted to pH 7.4. The plasma was spiked with compound to a final concentration of 2 μM. Aliquots of spiked plasma were added to the donor (red) side, followed by addition of buffer to the receiver (white) side. The RED device was covered with a gas-permeable membrane and agitated within a humidified CO2 incubator (5% CO2, 75% relative humidity). Plasma (15 μl) and buffer (45 μl) were sampled from each insert and were matrix-matched with appropriate blank matrix (plasma with 45 μl buffer and buffer with 15 μl of plasma). Samples were protein-precipitated with acetonitrile containing internal standard, and the resulting supernatant was analysed by LC-MS/MS.
# [5] = pKa determination by multiplexed capillary electrophoresis; type: physicochemical; details: aqueous buffers, read-out: pKa
# Method: All pKa values were determined at Analiza, Inc. by multiplexed capillary electrophoresis (mCE) using 96-capillary array electrophoresis instrument to measure the effective mobility (migration time of the compound in relation to neutral marker, DMSO) with ultraviolet detection. The pKa values were obtained from the ionization curves by plotting the compound effective mobility (24 points across pH range 1.7–11.2) versus pH. All pKa results were determined using aqueous buffers with method average absolute error 0.12.
# CatD = CatD (Homo sapiens, UniProt P07339); assay: CatD cellular assay (competition of PF-7802 photolabelling in live ARPE-19 cells); type: cell-based; parameters: host or cells: ARPE-19
# Method: ARPE-19 cells were plated at a density of 1.2 × 10^6 cells per well in six-well dishes 12–24 h before probe labelling. Culture media was removed completely and replaced with 1 ml of the appropriate serum-free media (no supplements) per well. Cells were then pretreated with test compounds at the indicated concentrations for 30 min (0.5% DMSO, 37 °C, 5% CO2). […] Ultraviolet irradiation was performed without culture plate lids for efficient irradiation, and samples were slowly rotated to prevent evaporation. After ultraviolet irradiation, cells were washed twice with Dulbecco's phosphate-buffered saline (DPBS), scraped into DPBS, centrifuged and stored as pellets at −80 °C.
# Cells were lysed with sonication on ice in 70 μl DPBS and protein concentrations were determined using a BCA assay (Pierce). Total protein concentrations were then normalized to 1 mg ml^−1 in 50 μl total volume before addition of 5.5 μl click chemistry mix (1 : 3 : 1 : 0.5 volume of 50 mM CuSO4 (Sigma) in H2O : 1.7 mM TBTA (Sigma) in 4:1 t-BuOH:DMSO : 50 mM TCEP (Hampton Research) in dPBS : 10 mM TAMRA-azide (Lumiprobe) in DMSO - mixed immediately before use. Reagent solutions can be premade and stored at 4 °C except for TCEP, which should be made immediately before use). […] All fluorescence gels are presented in greyscale.
# CatD, sequence (P07339 169-412 limits assumed): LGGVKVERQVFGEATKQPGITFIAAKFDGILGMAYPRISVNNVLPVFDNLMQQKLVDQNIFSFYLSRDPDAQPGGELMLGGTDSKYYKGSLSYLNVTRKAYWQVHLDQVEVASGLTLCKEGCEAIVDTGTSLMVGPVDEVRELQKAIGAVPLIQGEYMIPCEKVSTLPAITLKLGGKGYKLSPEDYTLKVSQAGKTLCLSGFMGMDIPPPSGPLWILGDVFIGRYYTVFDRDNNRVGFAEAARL
# CatD, sequence (P07339 65-162 limits assumed): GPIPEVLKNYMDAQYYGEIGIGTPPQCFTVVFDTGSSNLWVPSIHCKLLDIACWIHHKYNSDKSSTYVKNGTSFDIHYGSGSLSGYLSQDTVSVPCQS
# BACE1, sequence (P56817 46-501): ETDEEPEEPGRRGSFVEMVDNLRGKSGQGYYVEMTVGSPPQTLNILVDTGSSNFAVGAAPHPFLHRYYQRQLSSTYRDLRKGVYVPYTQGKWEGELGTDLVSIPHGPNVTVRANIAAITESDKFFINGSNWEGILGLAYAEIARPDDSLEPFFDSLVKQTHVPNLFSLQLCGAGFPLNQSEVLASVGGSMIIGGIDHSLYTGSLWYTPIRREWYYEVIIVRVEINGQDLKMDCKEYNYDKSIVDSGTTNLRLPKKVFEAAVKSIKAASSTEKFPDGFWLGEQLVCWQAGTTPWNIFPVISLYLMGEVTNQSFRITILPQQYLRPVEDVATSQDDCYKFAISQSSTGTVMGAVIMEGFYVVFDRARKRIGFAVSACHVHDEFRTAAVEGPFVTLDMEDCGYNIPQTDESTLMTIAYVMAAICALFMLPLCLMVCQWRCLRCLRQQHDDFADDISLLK
# T1 sequence (P07339 169-412 limits assumed): as the sequence (P07339 169-412 limits assumed) above
# T1 sequence (P07339 65-162 limits assumed): as the sequence (P07339 65-162 limits assumed) above
smiles,measurement,setting,value
"C[C@@]1(c2cc(-c3cncnc3)c(F)cc2F)CCSC(N)=N1 [LY2811376, reference compound]",Male ocular toxicity incidence (positive or negative animals / total evaluated),[1]; 25 mg kg-1 once daily,1/4
same,Male ocular toxicity outcome,[1]; 25 mg kg-1 once daily,Pos
same,Male ocular toxicity incidence (positive or negative animals / total evaluated),[1]; 75 mg kg-1 once daily,4/4
same,Male ocular toxicity outcome,[1]; 75 mg kg-1 once daily,Pos
same,Competition of PF-7802 labelling of the 30 kDa band,[2],blocked labelling of the 30 kDa band
same,Ocular toxicity in preclinical animal models,[3],ocular toxicity in preclinical animal models
same,BACE1 potency increase in live cells,BACE1,18 x
same,concentration at 7 days,[4]; 25 mg kg-1 once daily,741 nM
same,concentration at 7 days,[4]; 75 mg kg-1 once daily,4370 nM
same,pKa,[5],8.9
same,CatD potency difference between cell-free enzyme and cellular assays,CatD,95 fold
same,CatD potency increase in live cells,CatD; CatD enzyme IC50 versus CatD cellular IC50,95 x
